IC50 data for one compound are collected here from article PMC6631223, “Chain-Branched Polyhydroxylated Octahydro-1H-Indoles as Potential Leads against Lysosomal Storage Diseases” (Pharmaceuticals, 2019).

Common to all, as to type: biochemical
One assay has as its target T1, α-Glucosidase (yeast) (Saccharomyces cerevisiae, UniProt P53341).
T1 construct: purchased Sigma-Aldrich Co
Description: Glycosidase inhibition: α-glucosidase (yeast). The source says:
(§1) The enzymes α-glucosidase (from yeast, rice), β-glucosidase (from almonds, bovine liver), α-galactosidase (from coffee beans), β-galactosidase (from bovine liver), α-mannosidase (from jack beans), β-mannosidase (from snails), α-L-fucosidase (from bovine kidney), α-L-rhamnosidase (from Penicillium decumbens), β-glucuronidases (from Escherichia coli), α,α-trehalase (from porcine kidney), amyloglucosidase (from Aspergillus niger), p-nitrophenyl glycosides, and various disaccharides were purchased from Sigma-Aldrich Co. Brush border membranes were prepared from the rat small intestine according to the method of Kessler et al., and were assayed at pH 6.8 for rat intestinal maltase using maltose. For rat intestinal glucosidases and porcine kidney trehalase activities, the reaction mixture (0.2 mL) contained 25 mM substrate and the appropriate amount of enzyme, and the incubations were performed for 10 min at 37 °C. The reaction was stopped by heating at 100 °C for 3 min. After centrifugation (600 g; 10 min), 0.035 mL of the resulting reaction mixture were added to 2.1 mL of the Glucose CII-test Wako (Wako Pure Chemical Ind., Osaka, Japan). The absorbance at 505 nm was measured to determine the amount of the released D-glucose. Other glycosidase activities were determined using an appropriate p-nitrophenyl glycoside as substrate at the optimum pH of each enzyme. The reaction mixture (0.2 mL) contained 2 mM of the substrate and the appropriate amount of enzyme. The reaction was stopped by adding 0.4 mL of 400 mM Na2CO3. The released p-nitrophenol was measured spectrometrically at 400 nm.

In the next assay the target is T2, β-Glucronidase (E.coli) (Escherichia coli, UniProt P05804).
T2 construct: purchased Sigma-Aldrich Co
Description: Glycosidase inhibition: β-glucuronidase (E. coli).
Excerpt: as §1

The target of the next assay is β-Glucosidase (almond). The assay can be described thus: Glycosidase inhibition: β-glucosidase (almond).
Excerpt: as §1

The target in assay [1] is T3, α-L-Fucosidase (bovine kidney) (Bos taurus, UniProt Q2KIM0).
T3 construct: purchased Sigma-Aldrich Co; host or cells: bovine kidney
T3 sequence (Q2KIM0 23-468): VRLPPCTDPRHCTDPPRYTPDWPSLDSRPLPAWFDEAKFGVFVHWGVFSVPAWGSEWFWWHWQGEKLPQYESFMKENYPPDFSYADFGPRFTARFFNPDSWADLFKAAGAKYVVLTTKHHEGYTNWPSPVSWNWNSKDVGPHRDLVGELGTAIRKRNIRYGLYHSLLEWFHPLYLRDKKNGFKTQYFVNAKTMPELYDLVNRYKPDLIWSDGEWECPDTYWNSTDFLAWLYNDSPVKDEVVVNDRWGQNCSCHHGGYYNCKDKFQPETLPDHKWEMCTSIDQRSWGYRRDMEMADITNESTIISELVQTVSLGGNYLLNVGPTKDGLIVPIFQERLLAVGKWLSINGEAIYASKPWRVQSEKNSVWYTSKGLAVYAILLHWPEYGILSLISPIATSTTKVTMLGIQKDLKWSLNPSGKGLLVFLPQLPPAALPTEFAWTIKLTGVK
The assay can be described thus: Glycosidase inhibition: α-L-fucosidase (bovine kidney). The following applies: α-L-fucosidase, bovine kidney.
Excerpt: as §1

Assay [2] addresses T4, Lactase (β-Galactosidase) (Rattus norvegicus, UniProt Q02401).
T4 construct: Brush border membranes were prepared from the rat small intestine; from tissue; host or cells: rat small intestine brush border membranes (inferred)
T4 sequence (Q02401 868-1928): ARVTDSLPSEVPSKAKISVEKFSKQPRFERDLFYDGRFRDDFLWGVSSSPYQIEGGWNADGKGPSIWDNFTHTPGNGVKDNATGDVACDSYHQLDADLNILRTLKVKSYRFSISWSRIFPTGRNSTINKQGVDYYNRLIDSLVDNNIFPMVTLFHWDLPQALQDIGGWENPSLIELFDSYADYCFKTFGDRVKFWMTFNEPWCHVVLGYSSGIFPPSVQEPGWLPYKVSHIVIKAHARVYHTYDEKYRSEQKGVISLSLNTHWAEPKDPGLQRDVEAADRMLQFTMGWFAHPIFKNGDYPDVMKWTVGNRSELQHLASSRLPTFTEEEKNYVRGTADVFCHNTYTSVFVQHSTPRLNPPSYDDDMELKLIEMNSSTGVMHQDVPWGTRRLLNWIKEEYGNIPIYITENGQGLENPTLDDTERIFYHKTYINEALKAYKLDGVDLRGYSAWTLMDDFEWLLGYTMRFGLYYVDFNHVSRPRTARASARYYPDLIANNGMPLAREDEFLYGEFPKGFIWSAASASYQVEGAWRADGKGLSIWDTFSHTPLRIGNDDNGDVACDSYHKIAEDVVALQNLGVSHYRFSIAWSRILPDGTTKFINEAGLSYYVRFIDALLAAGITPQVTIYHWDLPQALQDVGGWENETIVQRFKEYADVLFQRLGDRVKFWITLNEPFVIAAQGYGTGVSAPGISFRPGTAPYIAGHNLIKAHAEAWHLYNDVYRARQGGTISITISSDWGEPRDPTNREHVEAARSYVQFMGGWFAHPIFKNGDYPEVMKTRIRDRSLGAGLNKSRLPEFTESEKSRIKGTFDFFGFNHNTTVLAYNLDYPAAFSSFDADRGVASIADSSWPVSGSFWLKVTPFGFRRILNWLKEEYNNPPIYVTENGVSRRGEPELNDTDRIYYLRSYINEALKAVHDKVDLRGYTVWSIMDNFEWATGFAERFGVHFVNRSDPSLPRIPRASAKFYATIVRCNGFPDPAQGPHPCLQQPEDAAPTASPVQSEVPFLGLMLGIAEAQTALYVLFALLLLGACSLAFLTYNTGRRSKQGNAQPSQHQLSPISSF
Description: Glycosidase inhibition: lactase. Particulars: lactase.
Excerpt: as §1

A further assay deals with T5, Amyloglucosidase (Aspergillus niger, UniProt P69328).
T5 construct: purchased Sigma-Aldrich Co
The assay can be described thus: Glycosidase inhibition: amyloglucosidase (Aspergillus niger).
Excerpt: as §1

For the next assay, the target named is Rat intestinal maltase. The assay can be described thus: Glycosidase inhibition: rat intestinal maltase. Particulars: maltose, pH 6.8.
Excerpt: as §1

Another assay deals with T6, α-Glucosidase (rice) (Oryza sativa subsp. japonica, UniProt Q653V7).
T6 construct: purchased Sigma-Aldrich Co
The assay can be described thus: Glycosidase inhibition: α-glucosidase (rice).
Excerpt: as §1

The target in assay [3] is T7, α-Galactosidase (coffee beans) (Coffea arabica, UniProt Q42656).
T7 construct: purchased Sigma-Aldrich Co
Description: Glycosidase inhibition: α-galactosidase (coffee beans). The following applies: α-galactosidase, coffee beans.
Excerpt: as §1

Another assay concerns the target β-Mannosidase (snail). Description: Glycosidase inhibition: β-mannosidase (snail).
Excerpt: as §1

T7 sequence (Q42656 16-378): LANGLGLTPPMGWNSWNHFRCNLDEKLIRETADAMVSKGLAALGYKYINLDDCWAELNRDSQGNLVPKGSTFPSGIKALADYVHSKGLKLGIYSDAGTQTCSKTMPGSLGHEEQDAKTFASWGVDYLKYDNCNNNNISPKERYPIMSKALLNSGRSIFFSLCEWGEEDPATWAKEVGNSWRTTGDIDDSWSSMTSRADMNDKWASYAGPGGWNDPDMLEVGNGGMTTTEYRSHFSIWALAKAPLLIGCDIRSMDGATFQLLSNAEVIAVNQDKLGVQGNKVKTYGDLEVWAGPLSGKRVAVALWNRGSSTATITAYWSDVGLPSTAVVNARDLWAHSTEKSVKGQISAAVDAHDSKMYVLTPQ
T5 sequence (P69328 25-640): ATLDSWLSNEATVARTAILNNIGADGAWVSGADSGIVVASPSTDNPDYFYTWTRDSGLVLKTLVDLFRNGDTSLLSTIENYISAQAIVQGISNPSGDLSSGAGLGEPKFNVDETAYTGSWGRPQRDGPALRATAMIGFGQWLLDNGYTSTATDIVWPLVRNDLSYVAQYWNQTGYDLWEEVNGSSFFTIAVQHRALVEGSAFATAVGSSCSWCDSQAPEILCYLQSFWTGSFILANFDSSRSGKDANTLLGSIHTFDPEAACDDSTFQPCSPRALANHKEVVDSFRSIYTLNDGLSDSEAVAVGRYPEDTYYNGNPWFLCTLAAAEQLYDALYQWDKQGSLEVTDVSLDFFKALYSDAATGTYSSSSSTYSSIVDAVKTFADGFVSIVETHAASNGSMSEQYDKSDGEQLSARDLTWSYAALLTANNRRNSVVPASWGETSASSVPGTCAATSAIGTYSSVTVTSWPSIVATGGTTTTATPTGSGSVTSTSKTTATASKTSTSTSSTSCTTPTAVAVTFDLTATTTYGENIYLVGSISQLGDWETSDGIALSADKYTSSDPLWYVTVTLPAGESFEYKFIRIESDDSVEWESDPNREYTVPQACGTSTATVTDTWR
T6 sequence (Q653V7 34-885): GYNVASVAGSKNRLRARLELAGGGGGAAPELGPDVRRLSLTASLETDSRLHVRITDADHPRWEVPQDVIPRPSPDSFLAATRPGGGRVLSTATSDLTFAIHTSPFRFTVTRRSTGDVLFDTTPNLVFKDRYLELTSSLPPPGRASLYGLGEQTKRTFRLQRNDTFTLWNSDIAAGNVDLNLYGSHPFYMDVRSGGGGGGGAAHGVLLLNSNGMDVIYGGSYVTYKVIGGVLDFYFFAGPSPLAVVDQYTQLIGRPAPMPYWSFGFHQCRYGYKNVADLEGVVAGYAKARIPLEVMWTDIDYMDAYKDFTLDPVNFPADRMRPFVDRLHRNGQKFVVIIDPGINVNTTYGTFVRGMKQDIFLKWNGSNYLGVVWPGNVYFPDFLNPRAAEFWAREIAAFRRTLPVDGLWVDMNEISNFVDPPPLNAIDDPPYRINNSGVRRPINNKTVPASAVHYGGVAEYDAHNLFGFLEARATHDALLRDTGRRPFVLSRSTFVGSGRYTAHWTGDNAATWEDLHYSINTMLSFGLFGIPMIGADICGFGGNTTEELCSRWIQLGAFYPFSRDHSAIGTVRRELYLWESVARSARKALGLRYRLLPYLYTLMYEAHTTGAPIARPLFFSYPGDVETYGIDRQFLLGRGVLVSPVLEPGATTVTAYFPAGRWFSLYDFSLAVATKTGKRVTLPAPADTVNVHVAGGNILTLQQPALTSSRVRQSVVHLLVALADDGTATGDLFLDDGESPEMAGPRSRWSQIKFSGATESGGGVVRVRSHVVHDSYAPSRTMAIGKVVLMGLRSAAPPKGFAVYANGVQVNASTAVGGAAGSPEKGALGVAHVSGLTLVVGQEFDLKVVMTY
T1 sequence (P53341 whole entry): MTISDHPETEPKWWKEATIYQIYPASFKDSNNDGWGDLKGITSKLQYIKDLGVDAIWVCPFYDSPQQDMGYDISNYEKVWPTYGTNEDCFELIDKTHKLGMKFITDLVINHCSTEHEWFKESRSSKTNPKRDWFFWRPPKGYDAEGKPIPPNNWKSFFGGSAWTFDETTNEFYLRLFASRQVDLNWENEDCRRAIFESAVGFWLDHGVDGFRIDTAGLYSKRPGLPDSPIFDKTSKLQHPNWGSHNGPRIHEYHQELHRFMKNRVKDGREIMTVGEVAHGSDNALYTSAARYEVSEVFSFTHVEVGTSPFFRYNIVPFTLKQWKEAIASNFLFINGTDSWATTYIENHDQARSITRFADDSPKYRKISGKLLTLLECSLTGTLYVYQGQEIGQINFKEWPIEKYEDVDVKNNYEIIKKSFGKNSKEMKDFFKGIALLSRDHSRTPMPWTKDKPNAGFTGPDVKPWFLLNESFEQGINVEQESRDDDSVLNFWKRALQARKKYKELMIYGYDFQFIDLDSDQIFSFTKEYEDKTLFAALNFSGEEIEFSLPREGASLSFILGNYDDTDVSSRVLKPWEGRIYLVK
T2 sequence (P05804 whole entry): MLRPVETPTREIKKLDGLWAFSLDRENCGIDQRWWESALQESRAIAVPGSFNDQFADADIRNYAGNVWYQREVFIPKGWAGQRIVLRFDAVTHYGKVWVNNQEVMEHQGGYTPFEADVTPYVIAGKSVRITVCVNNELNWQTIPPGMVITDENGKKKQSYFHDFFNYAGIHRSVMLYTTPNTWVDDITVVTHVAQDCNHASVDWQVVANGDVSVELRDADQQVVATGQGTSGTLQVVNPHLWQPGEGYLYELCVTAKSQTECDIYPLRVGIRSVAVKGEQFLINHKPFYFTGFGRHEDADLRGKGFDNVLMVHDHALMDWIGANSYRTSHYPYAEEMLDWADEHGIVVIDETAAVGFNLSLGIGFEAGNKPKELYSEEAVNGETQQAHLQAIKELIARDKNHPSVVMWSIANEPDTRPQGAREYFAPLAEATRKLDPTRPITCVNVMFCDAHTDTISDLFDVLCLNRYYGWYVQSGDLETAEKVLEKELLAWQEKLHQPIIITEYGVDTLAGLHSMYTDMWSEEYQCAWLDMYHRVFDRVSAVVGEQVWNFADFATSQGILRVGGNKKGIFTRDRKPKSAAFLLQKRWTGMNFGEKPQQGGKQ

Regarding `OCCN1C[C@H](O)[C@@H](O)[C@H](O)[C@H]1CO` [Miglitol, miglitol, reference compound], the concentration for half-maximal inhibition (IC50) (in general, the midpoint of a concentration-inhibition curve) was 70 µM on α-Glucosidase (yeast); over 1000 µM at β-Glucronidase (E.coli); over 1000 µM on β-Glucosidase (almond); over 1000 µM in [1]; over 1000 µM in assay [2]; over 1000 µM against Amyloglucosidase. The half-maximal inhibitory concentration (IC50) is over 1000 µM on Rat intestinal maltase, 0.17 µM on α-Glucosidase (rice), over 1000 µM in [3] and over 1000 µM against β-Mannosidase (snail).
